Assays:
[1] = system: BT4C glioma and healthy brain ROIs; assay: Logan plot (reversible uptake model) of dynamic [^18F]FGln PET; type: in vivo, BDIX rats; details: n = 13; for DV (AB): arterial blood radioactivity input; for DV (P): unbound plasma radioactivity fraction input
Excerpt: (§1) The dynamic PET image data was then extracted from each separate image and converted to standardized uptake values (SUV) which account for ROI volume, mean ROI radioactivity, subject weight, and total injected radioactivity dose (corrected for decay, residual syringe and cannula radioactivity). The results are shown as SUV ROI radioactivity curves over time as well as tumor-to-healthy brain region (TBR) ratios for improved comparisons. [^18F]FGln uptake data and blood radioactivity data (corrected for bioavailability fraction over time) were also input into multiple pharmacokinetic models described in the "[^18F]FGln Pharmacokinetic Modeling" section.
(§2) Blood input values from the heart left ventricle ROI in the PET image data were corrected for bioavailable fraction with Eqn. 2. Logan ([25]), Patlak ([26]), and two two-compartment models ([27]) (reversible and irreversible) were applied to whole-blood, unbound plasma fraction, and unbound plasma fraction assayed for parent-radiopharmaceutical purity as inputs for tumor and healthy brain ROIs. Mean, standard deviation, and two-tailed unpaired Student's t-test (for camera comparison, modeling values, and gender differences) p-values are reported where applicable.

orthotopic BT4C gliomas = assay: Dynamic PET/CT imaging of orthotopic BT4C gliomas, tumor-to-healthy brain uptake ratio (TBR); type: in vivo; details: dynamic PET images, both cameras pooled, BT4C glioma-bearing BDIX rats
Method: The 16 glioma-bearing BDIX-Ifz rats (herein "BDIX") for imaging studies (8 weeks old, 9 males and 7 females) were anesthetized under 2-2.5% isoflurane and given buprenorphine (0.01 mg/kg) and carprofen (5 mg/kg) for analgesia during surgery. […] All animals were sacrificed after either the final imaging (PET studies) or the final blood sample collection (metabolism studies) under deep isoflurane anesthesia (4%) via cervical dislocation after cardiac puncture to collect terminal blood samples. […] The injected amount of radioactivity also varied based on camera and radionuclide. […] Each PET image was separately examined, in the initial 20 s of frames for the amino-acid-based radiopharmaceuticals and 40-60 min frames for [^18F]FDG, to manually delineate heart left ventricle cavity voxels to use as a blood radioactivity estimation region of interest (ROI). […] The dynamic PET image data was then extracted from each separate image and converted to standardized uptake values (SUV) which account for ROI volume, mean ROI radioactivity, subject weight, and total injected radioactivity dose (corrected for decay, residual syringe and cannula radioactivity). The results are shown as SUV ROI radioactivity curves over time as well as tumor-to-healthy brain region (TBR) ratios for improved comparisons. […]

BT4C gliomas = assay: Ex vivo brain autoradiography, tumor-to-healthy brain uptake ratio; type: in vivo; details: ex vivo autoradiography of brain slices, BT4C glioma-bearing BDIX rats
Method: Ex vivo biodistribution studies were performed for [^18F]FGln with a complete organ list and results are listed in the Supplementary Material Some subjects from each radiopharmaceutical imaging group were sacrificed for autoradiographical and histological studies immediately after PET imaging. All autoradiography images were analyzed with Carimas software (Turku PET Centre, Turku, Finland).
The excised brains containing tumors were frozen with liquid nitrogen, sectioned with a Leica CM3050S cryotome into alternating 20 and 8 µm slices on different slides for hematoxylin/eosin and future histochemical staining respectively. […] The slides were then stained with hematoxylin/eosin and digitally scanned with a Pannoramic 250 Flash slide scanner (3DHistech, Budapest, Hungary) Autoradiographs and light micrographs were then aligned in Carimas software (Turku PET Centre, Turku, Finland) and analyzed therein.

[2] = system: BT4C glioma and healthy brain ROIs; assay: Irreversible two-tissue compartment model of dynamic [^18F]FGln PET; type: in vivo, BDIX rats; details: irreversible 2-tissue model, n = 13; for K1 (AB) plasma to tissue transport rate / K1/k2 (AB) equilibrium distribution volume / k3 (AB) rate constant / k3/(k2+k3) (AB): arterial blood input; for K1 (FP) plasma to tissue transport rate / K1/k2 (FP) equilibrium distribution volume / k3 (FP) rate constant / k3/(k2+k3) (FP): free parent plasma input; for K1 (P) plasma to tissue transport rate / K1/k2 (P) equilibrium distribution volume / k3 (P) rate constant / k3/(k2+k3) (P): unbound plasma input
Excerpt: as §1, §2

[3] = [^18F]FGln in vivo stability analysis (bioavailable fraction of whole blood radioactivity); details: both sexes, BDIX, rat, 40 MBq, healthy BDIX rats, approximately 60 min post-injection, n = 10, read-out: Bioavailable [^18F]FGln-fraction of total blood radioactivity
Method: Additional healthy BDIX rats (n = 10, 5 male, 5 female) were injected with approximately 40 MBq of [^18F]FGln and 150–200 µL aliquots of blood drawn at 5, 15, 30, 45, and 60 min into a heparin coated vial at 5°C to be assayed. During the final 60 min collection time point, animals were sacrificed under deep anesthesia via cardiac puncture and cervical dislocation. All radioactivity measurements were performed with a 3″ Nal system (Triathler, Hidex Oy, Turku Finland). Whole blood was weighed and measured for radioactivity before being centrifuged at 700 ×g and 4°C for 5 min. The plasma was separated out before being weighed and gamma counted followed by storage on ice for the later described assays. Hematocrit values used were averaged separately for male and female populations with five samples for each group. The following Equation 1 ([23]) was then used to calculate the radioactivity fraction taken up by the red blood cells and the available plasma fraction to avoid including plasma contamination in the blood cell fraction: […]
Where C = radioactivity concentration, ρ = density, RBC = red blood cell, and HCT = hematocrit. […]
Plasma aliquots (80 µL) were then precipitated with methanol (200 µL) before being vortexed thoroughly and centrifuged at 11,000 ×g for 10 min. The two fractions were separated and measured for radioactivity to calculate the unbound radioactivity fraction of the plasma. […]

[4] = system: BT4C glioma and healthy brain ROIs; assay: Patlak plot (irreversible uptake model) of dynamic [^18F]FGln PET; type: in vivo, BDIX rats; details: n = 13; for Ic (AB) y intercept: arterial blood input; for Ic (FP) y intercept: free parent plasma input; for Ic (P) y intercept: unbound plasma input
Excerpt: as §1, §2

[5] = system: BT4C glioma and healthy brain ROIs; assay: Reversible two-tissue compartment model of dynamic [^18F]FGln PET; type: in vivo, BDIX rats; details: reversible 2-tissue model, n = 13; for K1 (AB) plasma to tissue transport rate / K1/k2 (AB) equilibrium distribution volume / k3 (AB) rate constant / k3/k4 (AB): arterial blood input; for K1 (FP) plasma to tissue transport rate / K1/k2 (FP) equilibrium distribution volume / k3 (FP) rate constant / k3/k4 (FP): free parent plasma input; for K1 (P) plasma to tissue transport rate / K1/k2 (P) equilibrium distribution volume / k3 (P) rate constant / k3/k4 (P): unbound plasma input
Excerpt: as §1, §2

NC(=O)[C@H]([18F])C[C@H](N)C(=O)O [[^18F]FGln, (2S,4R)-4-[^18F]Fluoroglutamine]
Tumor DV/Healthy Brain DV (FP) ([1]; free parent plasma input): 2.31 ± 0.40 | DV (AB) ([1]; healthy brain ROI): 0.66 ± 0.19 | DV (FP) ([1]; healthy brain ROI, free parent plasma input): 1.72 ± 0.66 | DV (P) ([1]; healthy brain ROI): 0.48 ± 0.14 | DV (AB) ([1]; tumor ROI): 1.35 ± 0.36 | DV (FP) ([1]; tumor ROI, free parent plasma input): 4.00 ± 1.96 | DV (P) ([1]; tumor ROI): 1.00 ± 0.30 | Average tumor-to-healthy brain tissue uptake ratio (TBR), maximum (orthotopic BT4C gliomas): 1.99 ± 0.19 | Tumor-to-healthy brain uptake ratio (BT4C gliomas): 4.07 ± 0.49 | K1 (AB) plasma to tissue transport rate ([2]; healthy brain): 0.063 ± 0.053 mL min^-1 mL^-1 | K1/k2 (AB) equilibrium distribution volume ([2]; healthy brain): 0.338 ± 0.159 mL mL^-1 | k3 (AB) rate constant ([2]; healthy brain): 0.022 ± 0.010 min⁻¹ | k3/(k2+k3) (AB) ([2]; healthy brain): 0.126 ± 0.068 min min^-1 | K1 (FP) plasma to tissue transport rate ([2]; healthy brain): 0.033 ± 0.018 mL min^-1 mL^-1 | K1/k2 (FP) equilibrium distribution volume ([2]; healthy brain): 0.524 ± 0.324 mL mL^-1 | k3 (FP) rate constant ([2]; healthy brain): 0.064 ± 0.063 min⁻¹ | k3/(k2+k3) (FP) ([2]; healthy brain): 0.420 ± 0.146 min min^-1 | K1 (P) plasma to tissue transport rate ([2]; healthy brain): 0.024 ± 0.017 mL min^-1 mL^-1 | K1/k2 (P) equilibrium distribution volume ([2]; healthy brain): 0.221 ± 0.105 mL mL^-1 | k3 (P) rate constant ([2]; healthy brain): 0.028 ± 0.014 min⁻¹ | k3/(k2+k3) (P) ([2]; healthy brain): 0.215 ± 0.096 min min^-1 | K1 (AB) plasma to tissue transport rate ([2]; tumor): 0.088 ± 0.039 mL min^-1 mL^-1 | K1/k2 (AB) equilibrium distribution volume ([2]; tumor): 0.876 ± 0.29 mL mL^-1 | k3 (AB) rate constant ([2]; tumor): 0.017 ± 0.005 min⁻¹ | k3/(k2+k3) (AB) ([2]; tumor): 0.156 ± 0.078 min min^-1 | K1 (FP) plasma to tissue transport rate ([2]; tumor): 0.083 ± 0.113 mL min^-1 mL^-1 | K1/k2 (FP) equilibrium distribution volume ([2]; tumor): 1.841 ± 0.967 mL mL^-1 | k3 (FP) rate constant ([2]; tumor): 0.105 ± 0.246 min⁻¹ | k3/(k2+k3) (FP) ([2]; tumor): 0.385 ± 0.157 min min^-1 | K1 (P) plasma to tissue transport rate ([2]; tumor): 0.037 ± 0.015 mL min^-1 mL^-1 | K1/k2 (P) equilibrium distribution volume ([2]; tumor): 0.685 ± 0.330 mL mL^-1 | k3 (P) rate constant ([2]; tumor): 0.017 ± 0.007 min⁻¹ | k3/(k2+k3) (P) ([2]; tumor): 0.226 ± 0.078 min min^-1 | bioavailability at 60 min [3]: 28.1% | Ic (AB) y intercept ([4]; healthy brain): 0.376 ± 0.114 | Ic (FP) y intercept ([4]; healthy brain): 0.495 ± 0.195 | Ic (P) y intercept ([4]; healthy brain): 0.236 ± 0.076 | Ic (AB) y intercept ([4]; tumor): 0.676 ± 0.221 | Ic (FP) y intercept ([4]; tumor): 0.823 ± 0.376 | Ic (P) y intercept ([4]; tumor): 0.418 ± 0.149 | K1 (AB) plasma to tissue transport rate ([5]; healthy brain): 0.118 ± 0.132 mL min^-1 mL^-1 | K1/k2 (AB) equilibrium distribution volume ([5]; healthy brain): 0.248 ± 0.128 mL mL^-1 | k3 (AB) rate constant ([5]; healthy brain): 0.060 ± 0.039 min⁻¹ | k3/k4 (AB) ([5]; healthy brain): 3.279 ± 1.395 min min^-1 | K1 (FP) plasma to tissue transport rate ([5]; healthy brain): 0.033 ± 0.023 mL min^-1 mL^-1 | K1/k2 (FP) equilibrium distribution volume ([5]; healthy brain): 0.528 ± 0.363 mL mL^-1 | k3 (FP) rate constant ([5]; healthy brain): 0.196 ± 0.354 min⁻¹ | k3/k4 (FP) ([5]; healthy brain): 4.462 ± 1.312 min min^-1 | K1 (P) plasma to tissue transport rate ([5]; healthy brain): 0.041 ± 0.031 mL min^-1 mL^-1 | K1/k2 (P) equilibrium distribution volume ([5]; healthy brain): 0.137 ± 0.062 mL mL^-1 | k3 (P) rate constant ([5]; healthy brain): 0.086 ± 0.039 min⁻¹ | k3/k4 (P) ([5]; healthy brain): 4.021 ± 1.249 min min^-1 | K1 (AB) plasma to tissue transport rate ([5]; tumor): 0.133 ± 0.079 mL min^-1 mL^-1 | K1/k2 (AB) equilibrium distribution volume ([5]; tumor): 0.551 ± 0.221 mL mL^-1 | k3 (AB) rate constant ([5]; tumor): 0.073 ± 0.054 min⁻¹ | k3/k4 (AB) ([5]; tumor): 2.901 ± 1.331 min min^-1 | K1 (FP) plasma to tissue transport rate ([5]; tumor): 0.057 ± 0.023 mL min^-1 mL^-1 | K1/k2 (FP) equilibrium distribution volume ([5]; tumor): 1.646 ± 2.403 mL mL^-1 | k3 (FP) rate constant ([5]; tumor): 0.291 ± 0.481 min⁻¹ | k3/k4 (FP) ([5]; tumor): 4.466 ± 1.378 min min^-1 | K1 (P) plasma to tissue transport rate ([5]; tumor): 0.052 ± 0.026 mL min^-1 mL^-1 | K1/k2 (P) equilibrium distribution volume ([5]; tumor): 0.331 ±0.125 mL mL^-1 | k3 (P) rate constant ([5]; tumor): 0.231 ± 0.478 min⁻¹ | k3/k4 (P) ([5]; tumor): 3.191 ± 1.559 min min^-1

2-deoxy-2-[^18F]fluoro-D-glucose [[^18F]FDG]
Average tumor-to-healthy brain tissue uptake ratio (TBR), maximum (orthotopic BT4C gliomas): 1.41 ± 0.11 | Tumor-to-healthy brain uptake ratio (BT4C gliomas): 2.93 ± 0.57

From article PMC8530378, “Comparison of: (2S,4R)-4-[^18F]Fluoroglutamine, [^11C]Methionine, and 2-Deoxy-2-[^18F]Fluoro-D-Glucose and Two Small-Animal PET/CT Systems Imaging Rat Gliomas” (Frontiers in Oncology, 2021)
